Laboratory results as given in article PMC8800111 (The Journal of Biological Chemistry, 2021).

What was measured:
Assay type in all cases: cell-based
[1] = molecular target: proteins of U3A human fibrosarcoma cells (4462 proteins detected) (Homo sapiens, UniProt O94915); conditions: protein FRYL; U3A, 10 μM, 2 h
[2] = molecular target: proteins of U3A human fibrosarcoma cells (4462 proteins detected) (Homo sapiens, UniProt Q86TS9); conditions: protein MRPL52; soluble abundance after heat, U3A cells
[3] = molecular target: proteins of U3A human fibrosarcoma cells (4462 proteins detected) (Homo sapiens, UniProt P05388); conditions: protein RPLP0; RPLP0P6; U3A cells
[4] = molecular target: proteins of U3A human fibrosarcoma cells (4462 proteins detected) (Homo sapiens, UniProt Q9UIG0); conditions: protein BAZ1B; U3A cells
[5] = molecular target: proteins of U3A human fibrosarcoma cells (4462 proteins detected) (Homo sapiens, UniProt Q8IYB8); conditions: protein SUPV3L1; U3A cells
[6] = molecular target: proteins of U3A human fibrosarcoma cells (4462 proteins detected) (Homo sapiens, UniProt Q8IXJ6); conditions: protein SIRT2; U3A cells
[7] = molecular target: proteins of U3A human fibrosarcoma cells (4462 proteins detected) (Homo sapiens, UniProt Q9Y5P4); conditions: protein COL4A3BP; soluble abundance after heat, U3A cells
[8] = molecular target: proteins of U3A human fibrosarcoma cells (4462 proteins detected) (Homo sapiens, UniProt Q9NYY8); conditions: protein FASTKD2; U3A cells
[9] = molecular target: proteins of U3A human fibrosarcoma cells (4462 proteins detected) (Homo sapiens, UniProt Q9BSJ8); conditions: protein ESYT1; U3A cells
[10] = molecular target: proteins of U3A human fibrosarcoma cells (4462 proteins detected) (Homo sapiens, UniProt Q15397); conditions: protein KIAA0020; U3A cells
[11] = molecular target: proteins of U3A human fibrosarcoma cells (4462 proteins detected) (Homo sapiens, UniProt Q9C0E2); conditions: protein XPO4; soluble abundance after heat, U3A cells
[12] = molecular target: proteins of U3A human fibrosarcoma cells (4462 proteins detected) (Homo sapiens, UniProt P26006); conditions: protein ITGA3; U3A cells
[13] = molecular target: proteins of U3A human fibrosarcoma cells (4462 proteins detected) (Homo sapiens, UniProt P61201); conditions: protein COPS2; U3A cells
[14] = molecular target: proteins of U3A human fibrosarcoma cells (4462 proteins detected) (Homo sapiens, UniProt P13861); conditions: protein PRKAR2A; soluble abundance after heat, U3A cells
[15] = molecular target: proteins of U3A human fibrosarcoma cells (4462 proteins detected) (Homo sapiens, UniProt O95297); conditions: protein MPZL1; U3A, 10 μM, 2 h
[16] = molecular target: proteins of U3A human fibrosarcoma cells (4462 proteins detected) (Homo sapiens, UniProt P11182); conditions: protein DBT; U3A cells
[17] = molecular target: proteins of U3A human fibrosarcoma cells (4462 proteins detected) (Homo sapiens, UniProt Q9Y6E2); conditions: protein BZW2; U3A cells
[18] = molecular target: proteins of U3A human fibrosarcoma cells (4462 proteins detected) (Homo sapiens, UniProt Q9P2R7); conditions: protein SUCLA2; U3A, 10 μM, 2 h
[19] = molecular target: proteins of U3A human fibrosarcoma cells (4462 proteins detected) (Homo sapiens, UniProt P13473); conditions: protein LAMP2; soluble abundance after heat, U3A cells
[20] = molecular target: proteins of U3A human fibrosarcoma cells (4462 proteins detected) (Homo sapiens, UniProt Q5T5Y3); conditions: protein CAMSAP1; soluble abundance after heat, U3A cells
[21] = molecular target: proteins of U3A human fibrosarcoma cells (4462 proteins detected) (Homo sapiens, UniProt Q13303); conditions: protein KCNAB2, U3A cells
[22] = molecular target: proteins of U3A human fibrosarcoma cells (4462 proteins detected) (Homo sapiens, UniProt P35790); conditions: protein CHKA; U3A, 10 μM, 2 h
[23] = molecular target: proteins of U3A human fibrosarcoma cells (4462 proteins detected) (Homo sapiens, UniProt O75886); conditions: protein STAM2; U3A cells
[24] = molecular target: proteins of U3A human fibrosarcoma cells (4462 proteins detected) (Homo sapiens, UniProt Q9NX08); conditions: protein COMMD8; soluble abundance after heat, U3A cells
[25] = molecular target: proteins of U3A human fibrosarcoma cells (4462 proteins detected) (Homo sapiens, UniProt P54920); conditions: protein NAPA; soluble abundance after heat, U3A cells
[26] = molecular target: proteins of U3A human fibrosarcoma cells (4462 proteins detected) (Homo sapiens, UniProt P30419); conditions: protein NMT1, U3A cells
[27] = molecular target: proteins of U3A human fibrosarcoma cells (4462 proteins detected) (Homo sapiens, UniProt P14649); conditions: protein MYL6B, U3A cells
[28] = molecular target: proteins of U3A human fibrosarcoma cells (4462 proteins detected) (Homo sapiens, UniProt Q8WTT2); conditions: protein NOC3L; U3A cells
[29] = molecular target: proteins of U3A human fibrosarcoma cells (4462 proteins detected) (Homo sapiens, UniProt O00622); conditions: protein CYR61; U3A cells

proteins of U3A human fibrosarcoma cells (4462 proteins detected) (Homo sapiens, UniProt Q9UIG0), sequence (Q9UIG0 whole entry): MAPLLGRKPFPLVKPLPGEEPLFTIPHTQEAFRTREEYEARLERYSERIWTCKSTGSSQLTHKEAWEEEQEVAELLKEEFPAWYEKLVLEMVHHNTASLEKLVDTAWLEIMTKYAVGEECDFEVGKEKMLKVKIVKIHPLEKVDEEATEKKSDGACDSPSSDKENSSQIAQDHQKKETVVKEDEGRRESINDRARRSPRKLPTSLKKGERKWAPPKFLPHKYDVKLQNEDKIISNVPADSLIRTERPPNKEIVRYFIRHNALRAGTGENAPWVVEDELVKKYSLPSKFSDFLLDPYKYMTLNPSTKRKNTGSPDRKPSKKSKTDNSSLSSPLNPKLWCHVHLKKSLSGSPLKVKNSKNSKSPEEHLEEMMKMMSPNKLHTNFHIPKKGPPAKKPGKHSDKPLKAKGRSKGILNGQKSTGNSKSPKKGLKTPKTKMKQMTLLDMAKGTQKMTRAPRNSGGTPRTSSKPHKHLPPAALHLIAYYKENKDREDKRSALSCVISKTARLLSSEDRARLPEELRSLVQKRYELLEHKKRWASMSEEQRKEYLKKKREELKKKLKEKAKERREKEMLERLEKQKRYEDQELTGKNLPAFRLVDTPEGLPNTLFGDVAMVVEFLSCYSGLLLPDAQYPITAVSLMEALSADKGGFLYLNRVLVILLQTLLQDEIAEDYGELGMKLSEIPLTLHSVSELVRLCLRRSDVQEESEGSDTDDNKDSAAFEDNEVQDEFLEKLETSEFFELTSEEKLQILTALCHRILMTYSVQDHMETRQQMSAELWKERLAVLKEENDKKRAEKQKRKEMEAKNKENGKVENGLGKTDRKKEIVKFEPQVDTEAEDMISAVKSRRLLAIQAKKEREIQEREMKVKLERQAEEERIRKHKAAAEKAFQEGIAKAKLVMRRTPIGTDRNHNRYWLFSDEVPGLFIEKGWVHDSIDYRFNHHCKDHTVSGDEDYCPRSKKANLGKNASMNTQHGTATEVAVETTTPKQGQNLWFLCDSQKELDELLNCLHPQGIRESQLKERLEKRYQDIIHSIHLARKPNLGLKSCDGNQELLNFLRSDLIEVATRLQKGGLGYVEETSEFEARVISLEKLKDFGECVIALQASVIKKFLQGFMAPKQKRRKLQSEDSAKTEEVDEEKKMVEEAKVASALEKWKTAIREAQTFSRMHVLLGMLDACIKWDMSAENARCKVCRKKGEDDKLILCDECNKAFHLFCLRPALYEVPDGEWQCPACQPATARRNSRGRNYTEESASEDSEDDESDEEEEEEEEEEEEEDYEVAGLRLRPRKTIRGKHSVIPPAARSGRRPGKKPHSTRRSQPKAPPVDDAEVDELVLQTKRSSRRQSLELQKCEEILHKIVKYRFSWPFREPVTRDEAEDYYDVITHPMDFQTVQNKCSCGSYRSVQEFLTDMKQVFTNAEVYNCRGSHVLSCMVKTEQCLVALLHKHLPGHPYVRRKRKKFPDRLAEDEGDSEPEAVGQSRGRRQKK
proteins of U3A human fibrosarcoma cells (4462 proteins detected) (Homo sapiens, UniProt O95297), sequence (O95297 36-269): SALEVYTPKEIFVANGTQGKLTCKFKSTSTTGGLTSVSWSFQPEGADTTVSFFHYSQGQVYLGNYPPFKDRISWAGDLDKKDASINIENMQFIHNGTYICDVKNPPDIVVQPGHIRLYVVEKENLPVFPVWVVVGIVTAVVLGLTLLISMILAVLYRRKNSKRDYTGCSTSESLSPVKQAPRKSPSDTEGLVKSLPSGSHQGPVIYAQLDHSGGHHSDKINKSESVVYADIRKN
proteins of U3A human fibrosarcoma cells (4462 proteins detected) (Homo sapiens, UniProt Q9NX08), sequence (Q9NX08 whole entry): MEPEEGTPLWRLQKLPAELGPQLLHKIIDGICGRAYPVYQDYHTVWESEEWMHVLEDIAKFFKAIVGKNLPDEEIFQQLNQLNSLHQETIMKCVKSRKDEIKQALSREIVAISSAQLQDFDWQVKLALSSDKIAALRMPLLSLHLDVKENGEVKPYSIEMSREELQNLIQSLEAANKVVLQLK
proteins of U3A human fibrosarcoma cells (4462 proteins detected) (Homo sapiens, UniProt Q13303), sequence (Q13303 whole entry): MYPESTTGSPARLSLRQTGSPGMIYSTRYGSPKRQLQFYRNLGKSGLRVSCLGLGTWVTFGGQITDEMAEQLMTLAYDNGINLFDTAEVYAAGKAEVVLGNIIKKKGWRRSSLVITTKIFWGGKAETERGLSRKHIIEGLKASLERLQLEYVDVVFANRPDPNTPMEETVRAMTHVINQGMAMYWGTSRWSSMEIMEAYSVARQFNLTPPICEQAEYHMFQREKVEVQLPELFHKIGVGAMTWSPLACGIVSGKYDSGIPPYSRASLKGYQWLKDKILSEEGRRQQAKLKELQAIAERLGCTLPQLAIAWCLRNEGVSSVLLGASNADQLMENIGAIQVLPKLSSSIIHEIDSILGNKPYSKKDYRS
proteins of U3A human fibrosarcoma cells (4462 proteins detected) (Homo sapiens, UniProt Q9C0E2), sequence (Q9C0E2 whole entry): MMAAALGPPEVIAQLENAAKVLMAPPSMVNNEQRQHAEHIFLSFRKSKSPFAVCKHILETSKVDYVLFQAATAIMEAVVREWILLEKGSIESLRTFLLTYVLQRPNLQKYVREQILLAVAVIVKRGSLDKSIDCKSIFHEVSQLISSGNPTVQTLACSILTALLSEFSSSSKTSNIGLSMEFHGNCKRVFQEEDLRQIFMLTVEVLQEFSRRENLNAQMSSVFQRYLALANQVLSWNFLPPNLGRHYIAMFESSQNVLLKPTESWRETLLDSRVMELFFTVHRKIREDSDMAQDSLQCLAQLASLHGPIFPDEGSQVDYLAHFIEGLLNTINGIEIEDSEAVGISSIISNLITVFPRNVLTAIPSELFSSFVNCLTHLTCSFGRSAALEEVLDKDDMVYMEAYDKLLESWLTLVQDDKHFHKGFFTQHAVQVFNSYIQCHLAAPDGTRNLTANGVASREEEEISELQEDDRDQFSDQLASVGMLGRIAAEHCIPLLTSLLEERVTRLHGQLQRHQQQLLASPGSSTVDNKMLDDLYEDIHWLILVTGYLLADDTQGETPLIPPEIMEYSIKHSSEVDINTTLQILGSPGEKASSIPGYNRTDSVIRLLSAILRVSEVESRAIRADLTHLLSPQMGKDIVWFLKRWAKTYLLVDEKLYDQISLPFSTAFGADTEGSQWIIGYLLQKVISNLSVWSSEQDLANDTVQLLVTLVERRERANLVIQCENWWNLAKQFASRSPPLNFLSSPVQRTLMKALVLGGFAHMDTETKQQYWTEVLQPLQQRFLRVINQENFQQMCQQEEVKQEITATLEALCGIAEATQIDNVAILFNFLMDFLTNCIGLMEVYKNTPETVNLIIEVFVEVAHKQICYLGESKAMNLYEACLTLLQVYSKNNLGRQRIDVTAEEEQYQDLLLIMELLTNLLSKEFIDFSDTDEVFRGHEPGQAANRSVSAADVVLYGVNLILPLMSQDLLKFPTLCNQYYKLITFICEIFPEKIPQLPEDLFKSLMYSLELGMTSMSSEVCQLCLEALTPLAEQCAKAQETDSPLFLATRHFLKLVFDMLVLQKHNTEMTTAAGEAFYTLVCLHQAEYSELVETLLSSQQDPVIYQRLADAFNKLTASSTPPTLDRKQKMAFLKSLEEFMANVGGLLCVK
proteins of U3A human fibrosarcoma cells (4462 proteins detected) (Homo sapiens, UniProt Q9BSJ8), sequence (Q9BSJ8 whole entry): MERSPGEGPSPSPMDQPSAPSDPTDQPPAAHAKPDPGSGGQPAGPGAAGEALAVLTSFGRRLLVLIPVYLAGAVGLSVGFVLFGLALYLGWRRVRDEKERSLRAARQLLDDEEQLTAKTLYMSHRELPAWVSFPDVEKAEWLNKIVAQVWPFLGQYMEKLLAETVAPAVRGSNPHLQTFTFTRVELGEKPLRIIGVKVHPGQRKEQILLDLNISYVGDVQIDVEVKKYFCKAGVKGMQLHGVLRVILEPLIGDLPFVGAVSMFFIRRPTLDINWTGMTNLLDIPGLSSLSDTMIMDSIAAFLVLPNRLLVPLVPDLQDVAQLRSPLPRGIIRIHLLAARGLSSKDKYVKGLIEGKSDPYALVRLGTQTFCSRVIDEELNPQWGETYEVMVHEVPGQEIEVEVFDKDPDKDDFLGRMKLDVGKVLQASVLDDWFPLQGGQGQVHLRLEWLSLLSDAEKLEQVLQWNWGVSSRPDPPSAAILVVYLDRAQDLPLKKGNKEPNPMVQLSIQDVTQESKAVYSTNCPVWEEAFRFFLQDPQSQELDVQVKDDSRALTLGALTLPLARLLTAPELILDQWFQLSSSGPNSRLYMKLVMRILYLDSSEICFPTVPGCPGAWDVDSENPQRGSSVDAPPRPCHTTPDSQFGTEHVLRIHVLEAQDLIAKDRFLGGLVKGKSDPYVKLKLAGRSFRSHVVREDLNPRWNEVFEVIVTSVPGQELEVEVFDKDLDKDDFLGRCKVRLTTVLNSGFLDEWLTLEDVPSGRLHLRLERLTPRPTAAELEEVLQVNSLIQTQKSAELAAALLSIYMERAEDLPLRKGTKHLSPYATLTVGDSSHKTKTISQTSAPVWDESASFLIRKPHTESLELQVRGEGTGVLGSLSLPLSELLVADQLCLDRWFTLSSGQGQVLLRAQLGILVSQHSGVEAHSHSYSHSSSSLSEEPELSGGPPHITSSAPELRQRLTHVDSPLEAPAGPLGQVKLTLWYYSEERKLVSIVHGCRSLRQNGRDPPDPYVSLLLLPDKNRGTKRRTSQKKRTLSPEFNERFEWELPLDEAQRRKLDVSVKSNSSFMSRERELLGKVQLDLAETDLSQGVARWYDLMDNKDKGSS
proteins of U3A human fibrosarcoma cells (4462 proteins detected) (Homo sapiens, UniProt P61201), sequence (P61201 whole entry): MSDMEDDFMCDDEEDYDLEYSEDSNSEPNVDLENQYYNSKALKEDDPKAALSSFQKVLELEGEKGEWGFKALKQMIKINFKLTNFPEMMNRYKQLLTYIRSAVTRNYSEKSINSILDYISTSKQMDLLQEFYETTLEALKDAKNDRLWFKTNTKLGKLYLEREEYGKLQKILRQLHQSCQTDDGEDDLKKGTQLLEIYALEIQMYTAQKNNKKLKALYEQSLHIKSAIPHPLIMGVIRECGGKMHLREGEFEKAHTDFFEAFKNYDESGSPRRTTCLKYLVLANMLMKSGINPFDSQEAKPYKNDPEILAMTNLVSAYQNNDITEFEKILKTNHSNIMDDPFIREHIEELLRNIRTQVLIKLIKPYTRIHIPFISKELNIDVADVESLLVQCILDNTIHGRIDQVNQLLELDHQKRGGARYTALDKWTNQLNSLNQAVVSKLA

SMILES: CCc1nc(N)nc(N)c1-c1ccc(Cl)cc1 [pyrimethamine]
- Log2 (PYR/DMSO), FRYL [1]: 0.28
- Log2 (PYR/DMSO) [2]: 0.15
- Log2 (PYR/DMSO) [3]: 0.23
- Log2 (PYR/DMSO) [4]: 0.21
- Log2 (PYR/DMSO) [5]: 0.19
- Log2 (PYR/DMSO) [6]: 0.19
- Log2 (PYR/DMSO) [7]: 0.13
- Log2 (PYR/DMSO) [8]: 0.21
- Log2 (PYR/DMSO) [9]: 0.20
- Log2 (PYR/DMSO) [10]: 0.18
- Log2 (PYR/DMSO) [11]: 0.13
- Log2 (PYR/DMSO) [12]: 0.16
- Log2 (PYR/DMSO) [13]: 0.21
- Log2 (PYR/DMSO) [14]: 0.14
- Log2 (PYR/DMSO), MPZL1 [15]: 0.25
- Log2 (PYR/DMSO) [16]: 0.16
- Log2 (PYR/DMSO) [17]: 0.19
- Log2 (PYR/DMSO), SUCLA2 [18]: 0.23
- Log2 (PYR/DMSO) [19]: 0.14
- Log2 (PYR/DMSO) [20]: 0.13
- Log2 (PYR/DMSO) [21]: -0.03
- Log2 (PYR/DMSO), CHKA [22]: 0.24
- Log2 (PYR/DMSO) [23]: 0.19
- Log2 (PYR/DMSO) [24]: 0.14
- Log2 (PYR/DMSO) [25]: 0.14
- Log2 (PYR/DMSO) [26]: -0.05
- Log2 (PYR/DMSO) [27]: -0.04
- Log2 (PYR/DMSO) [28]: 0.16
- Log2 (PYR/DMSO) [29]: 0.21
